From patent publication US5679640A, “Immunosuppressant peptides” (priority 1995, dated 1997)
Where two headings read alike, the source gives them in different places. Non-standard residues stand in square brackets, D forms with d. Residues, ends and D or L forms follow the SMILES beside them. Cha = N[C@@H](CC1CCCCC1)C(=O)O

Key:
DR4w14 = assay: DR-peptide binding assay, DR4w14; set-up: species or system human; settings: Table 3, […]
Method: DR-peptide binding assay. Purified DR molecules (10-1,000 nM) were incubated with 10 nM ^125 I-radiolabeled peptide for 48 hours in the presence of added protease inhibitors. […] The final concentrations of protease inhibitors were: 1 mM PMSF, 1.3 mM 1,10-phenanthroline, 73 μM pepstatin A, 8 mM EDTA, 6 mM N-ethyl maleimide, and 200 μM Nα-p-tosyl-L-lysine chloromethyl ketone (TLCK). The final detergent concentration in the incubation mixture was 0.05% NP-40. Several of the peptides screened were hydrophobic and required DMSO to maintain solubility and reduce peptide adsorption to surfaces. In these instances peptide stock solutions were prepared in neat DMSO, and the final DMSO concentration in the incubation mixture was adjusted to 5%. […] The DR-peptide complexes were separated from free peptide by gel filtration on a Sephadex G50 (Pharmacia Fine Chemicals, Piscataway, N.J.) column (23×1.3 cm), as previously described. […] The columns were eluted using PBS (0.5% NP-40, 0.1% NAN3) collected in 1 ml fractions, which were then assayed for radioactivity. The fraction of peptide bound to DR (α) relative to the total amount of offered peptide was determined as the ratio of peptide in the void volume to the total peptide recovered. The α was corrected by subtracting the negative control (^125 I-peptide incubated for two days at room temperature in the presence of protease inhibitors and 120 μg/ml of unlabeled peptide, but in the absence of any DR).
To obtain a figure that positively correlated with the binding affinity, the data were expressed as relative binding values.

DR4w4 = biological target: T1, DR4w4 (Homo sapiens, UniProt P01903+P01911, A100K/A169T/F76Y/I96L/K127E/L162R/M171V/N62H/P40V/Q125Y/R42H/S133A/S149N/S66Y/V115G/V209L/W38E); assay: DR-peptide binding assay, DR4w4
T1 construct: EBV-transformed homozygous cell lines were used as a source of DR molecules; endogenous in cells; host or cells: Preiss or Beh (EBV-transformed human B cell lines, DR4 Dw4 homozygous); lysate purified on a monoclonal antibody LB3.1 column

HLA-DR1 = biological target: T2, HLA-DR1 (Homo sapiens, UniProt P01903+P01911, A100R/D57E/F55L/F60I/F76Y/I96L/L162R/M171V/P40L/Q125E/R42F/V115G/Y59C); assay: DR-peptide binding assay, DR1
T2 construct: EBV-transformed homozygous cell lines were used as a source of DR molecules; endogenous in cells; host or cells: LG-2 (EBV-transformed human B cell line, DR1 homozygous); lysate purified on a monoclonal antibody LB3.1 column

[1] = Table 3, binding affinity relative to HA 307-319 = 1

Structure (SMILES)	MHC Binding Assay DR4w14 (DR4w14)	MHC Binding Assay DR4w4 (DR4w4; [1])	MHC Binding Assay DR1 (HLA-DR1; [1])	MHC Binding Assay DR4w4 (DR4w4)	MHC Binding Assay DR1 (HLA-DR1)
CC(C)C[C@H](NC(=O)[C@@H](NC(=O)[C@H](C)NC(=O)[C@H](C)NC(=O)[C@H](C)NC(=O)[C@H](C)NC(=O)[C@H](CC1CCCCC1)NC(=O)[C@H](C)NC(=O)[C@@H](C)N)[C@@H](C)O)C(=O)N[C@@H](CCCCN)C(=O)N[C@@H](C)C(=O)N[C@@H](C)C(=O)N[C@H](C)C(N)=O [aAXAAAATLKAAa-NH2]	++ (affinity greater than 1.0)	++ (affinity greater than 1.0)	++ (affinity greater than 1.0)	–	–
C[C@H](NC(=O)[C@H](C)NC(=O)[C@H](C)NC(=O)[C@@H](NC(=O)[C@H](CCCCN)NC(=O)[C@H](C)NC(=O)[C@H](C)NC(=O)[C@H](C)NC(=O)[C@H](Cc1ccccc1)NC(=O)[C@H](C)NC(=O)[C@@H](C)N)[C@@H](C)O)C(=O)N[C@@H](C)C(=O)N[C@H](C)C(N)=O (H-[dA]AFAAAKTAAAA[dA]-NH2)	++ (affinity greater than 1.0)	++ (affinity greater than 1.0)	++ (affinity greater than 1.0)	–	–
CC(=O)N[C@H](Cc1ccc(O)cc1)C(=O)N[C@@H](C)C(=O)N[C@@H](C)C(=O)N[C@@H](Cc1ccccc1)C(=O)N[C@@H](C)C(=O)N[C@@H](C)C(=O)N[C@@H](C)C(=O)N[C@@H](CCCCN)C(=O)N[C@H](C(=O)N[C@@H](C)C(=O)N[C@@H](C)C(=O)N[C@@H](C)C(=O)N[C@@H](Cc1ccccc1)C(=O)N[C@H](C)C(N)=O)[C@@H](C)O (Ac-[dY]AAFAAAKTAAAF[dA]-NH2)	++ (affinity greater than 1.0)	–	–	++ (key: ++: affinity greater than 1.0; +: .51 to 1.0; ±: 0.1 to .50; -: less than 0.1)	+ (key: ++: affinity greater than 1.0; +: 0.51 to 1.0; ±: 0.1 to 0.50; -: less than 0.1)
CC(C)C[C@H](NC(=O)[C@@H](NC(=O)[C@@H](NC(=O)[C@H](CCC(N)=O)NC(=O)[C@H](CCCNC(=N)N)NC(=O)[C@H](CCC(N)=O)NC(=O)[C@H](Cc1ccccc1)NC(=O)[C@H](C)NC(=O)[C@H](C)NC(=O)[C@H](N)Cc1ccc(O)cc1)[C@@H](C)O)[C@@H](C)O)C(=O)N[C@@H](CCCCN)C(=O)N[C@@H](C)C(=O)N[C@@H](C)C(=O)N[C@H](C)C(N)=O (H-[dY]AAFQRQTTLKAA[dA]-NH2)	++ (affinity greater than 1.0)	++ (affinity greater than 1.0)	++ (affinity greater than 1.0)	–	–
CC(C)C[C@H](NC(=O)[C@@H](NC(=O)[C@H](C)NC(=O)[C@H](C)NC(=O)[C@H](C)NC(=O)[C@H](C)NC(=O)[C@H](Cc1ccccc1)NC(=O)[C@H](C)NC(=O)[C@@H](C)N)[C@@H](C)O)C(=O)N[C@@H](CCCCN)C(=O)N[C@@H](C)C(=O)N[C@@H](C)C(=O)N[C@H](C)C(=O)O (H-[dA]AFAAAATLKAA[dA]-OH)	++ (affinity greater than 1.0)	++ (affinity greater than 1.0)	++ (affinity greater than 1.0)	–	–
CC(C)C[C@H](NC(=O)[C@@H](NC(=O)[C@@H](NC(=O)[C@H](CCC(N)=O)NC(=O)[C@H](CCCNC(=N)N)NC(=O)[C@H](CCC(N)=O)NC(=O)[C@H](Cc1ccccc1)NC(=O)[C@H](C)NC(=O)[C@H](C)NC(=O)[C@H](N)Cc1ccc(O)cc1)[C@@H](C)O)[C@@H](C)O)C(=O)N[C@@H](CCCCN)C(=O)N[C@@H](C)C(=O)N[C@@H](C)C(=O)N[C@H](C)C(=O)O (H-[dY]AAFQRQTTLKAA[dA]-OH)	++ (affinity greater than 1.0)	++ (affinity greater than 1.0)	++ (affinity greater than 1.0)	–	–
C[C@H](NC(=O)[C@H](C)NC(=O)[C@H](C)NC(=O)[C@H](Cc1ccccc1)NC(=O)[C@H](C)NC(=O)[C@@H](C)N)C(=O)N[C@@H](C)C(=O)N[C@H](C(=O)N[C@@H](C)C(=O)N[C@@H](CCCCN)C(=O)N[C@@H](C)C(=O)N[C@@H](C)C(=O)N[C@H](C)C(=O)O)[C@@H](C)O (H-[dA]AFAAAATAKAA[dA]-OH)	++ (affinity greater than 1.0)	++ (affinity greater than 1.0)	++ (affinity greater than 1.0)	–	–
CC(=O)N[C@H](C)C(=O)N[C@@H](C)C(=O)N[C@@H](CC1CCCCC1)C(=O)N[C@@H](C)C(=O)N[C@@H](C)C(=O)N[C@@H](C)C(=O)N[C@@H](CCCCN)C(=O)N[C@H](C(=O)N[C@@H](C)C(=O)N[C@@H](C)C(=O)N[C@@H](C)C(=O)N[C@@H](C)C(=O)N[C@H](C)C(N)=O)[C@@H](C)O [Ac-aAXAAAKTAAAAa-NH2]	++ (affinity greater than 1.0)	++ (affinity greater than 1.0)	+ (0.51 to 1.0)	–	–
CC(C)C[C@H](NC(=O)[C@@H](NC(=O)[C@H](CCCCN)NC(=O)[C@H](C)NC(=O)[C@H](C)NC(=O)[C@H](C)NC(=O)[C@H](Cc1ccccc1)NC(=O)[C@H](C)NC(=O)[C@@H](C)N)[C@@H](C)O)C(=O)N[C@@H](C)C(=O)N[C@@H](C)C(=O)N[C@@H](C)C(=O)N[C@H](C)C(N)=O (H-[dA]AFAAAKTLAAA[dA]-NH2)	++ (affinity greater than 1.0)	++ (affinity greater than 1.0)	++ (affinity greater than 1.0)	–	–
C[C@H](NC(=O)[C@H](C)NC(=O)[C@H](C)NC(=O)[C@@H](NC(=O)[C@H](CCCCN)NC(=O)[C@H](C)NC(=O)[C@H](C)NC(=O)[C@H](C)NC(=O)[C@H](CC1CCCCC1)NC(=O)[C@H](C)NC(=O)[C@@H](C)N)[C@@H](C)O)C(=O)N[C@@H](C)C(=O)N[C@H](C)C(N)=O [aAXAAAKTAAAAa-NH2]	++ (affinity greater than 1.0)	++ (affinity greater than 1.0)	++ (affinity greater than 1.0)	–	–
CC(=O)N[C@H](Cc1ccc(O)cc1)C(=O)N[C@@H](C)C(=O)N[C@@H](C)C(=O)N[C@@H](Cc1ccccc1)C(=O)N[C@@H](C)C(=O)N[C@@H](C)C(=O)N[C@@H](C)C(=O)N[C@@H](CCCCN)C(=O)N[C@H](C(=O)N[C@@H](CC(C)C)C(=O)N[C@@H](C)C(=O)N[C@@H](C)C(=O)N[C@@H](C)C(=O)N[C@H](C)C(N)=O)[C@@H](C)O (Ac-[dY]AAFAAAKTLAAA[dA]-NH2)	++ (affinity greater than 1.0)	++ (affinity greater than 1.0)	+ (0.51 to 1.0)	–	–
CC(C)C[C@H](NC(=O)[C@@H](NC(=O)[C@H](C)NC(=O)[C@H](C)NC(=O)[C@H](CCCCN)NC(=O)[C@H](C)NC(=O)[C@H](Cc1ccccc1)NC(=O)[C@H](C)NC(=O)[C@@H](C)N)[C@@H](C)O)C(=O)N[C@@H](CCCCN)C(=O)N[C@@H](C)C(=O)N[C@@H](C)C(=O)N[C@H](C)C(N)=O (H-[dA]AFAKAATLKAA[dA]-NH2)	++ (affinity greater than 1.0)	++ (affinity greater than 1.0)	++ (affinity greater than 1.0)	–	–
CC(C)C[C@H](NC(=O)[C@@H](NC(=O)[C@H](CCCCN)NC(=O)[C@H](C)NC(=O)[C@H](C)NC(=O)[C@H](C)NC(=O)[C@H](Cc1ccccc1)NC(=O)[C@H](C)NC(=O)[C@H](C)NC(=O)[C@H](N)Cc1ccc(O)cc1)[C@@H](C)O)C(=O)N[C@@H](C)C(=O)N[C@@H](C)C(=O)N[C@@H](C)C(=O)N[C@H](C)C(N)=O (H-[dY]AAFAAAKTLAAA[dA]-NH2)	++ (affinity greater than 1.0)	++ (affinity greater than 1.0)	++ (affinity greater than 1.0)	–	–
C[C@H](NC(=O)[C@H](N)Cc1ccc(O)cc1)C(=O)N[C@@H](C)C(=O)N[C@@H](CC1CCCCC1)C(=O)N[C@@H](C)C(=O)N[C@@H](C)C(=O)N[C@@H](C)C(=O)N[C@@H](C)C(=O)N[C@H](C(=O)N[C@@H](CCCCN)C(=O)N[C@@H](C)C(=O)N[C@@H](C)C(=O)N[C@@H](C)C(=O)N[C@H](C)C(N)=O)[C@@H](C)O [yAAXAAAATKAAAa-NH2] (H-[dY]AA[Cha]AAAATKAAA[dA]-NH2)	++ (affinity greater than 1.0)	++ (affinity greater than 1.0)	++ (affinity greater than 1.0)	–	–
C[C@H](NC(=O)[C@H](C)NC(=O)[C@H](C)NC(=O)[C@@H](NC(=O)[C@H](CCCCN)NC(=O)[C@H](C)NC(=O)[C@H](C)NC(=O)[C@H](C)NC(=O)[C@H](Cc1ccccc1)NC(=O)[C@@H](C)N)[C@@H](C)O)C(=O)N[C@@H](C)C(=O)N[C@H](C)C(N)=O (H-[dA]FAAAKTAAAA[dA]-NH2)	++ (affinity greater than 1.0)	++ (affinity greater than 1.0)	+ (0.51 to 1.0)	–	–
CC(=O)N[C@H](Cc1ccc(O)cc1)C(=O)N[C@@H](C)C(=O)N[C@@H](CCCNC(=N)N)C(=O)N[C@@H](Cc1ccccc1)C(=O)N[C@@H](CCC(N)=O)C(=O)N[C@@H](CCCNC(=N)N)C(=O)N[C@@H](CCC(N)=O)C(=O)N[C@H](C(=O)N[C@H](C(=O)N[C@@H](CC(C)C)C(=O)N[C@@H](CCCCN)C(=O)N[C@@H](C)C(=O)N[C@@H](C)C(=O)N[C@H](C)C(=O)O)[C@@H](C)O)[C@@H](C)O (Ac-[dY]ARFQRQTTLKAA[dA]-OH)	++ (affinity greater than 1.0)	++ (affinity greater than 1.0)	+ (0.51 to 1.0)	–	–
